Data on two molecules can be found in PMC7738508, “A therapeutic combination of two small molecule toxin inhibitors provides broad preclinical efficacy against viper snakebite” (Nature Communications, 2020).

Data set [1] deals with SVMP bioactivity of the four active venoms (E. ocellatus, E. carinatus, B. asper, B. arietans). As to the kind of experiment: in vitro kinetic fluorogenic SVMP assay, viper venoms overall. Format: biochemical. On the procedure:
(§1) The SVMP assay measuring metalloproteinase activity and the plasma assay measuring coagulation in the presence or absence of venoms and inhibitors were performed as previously described. The SVMP assay kinetically measured cleavage of a quenched fluorogenic substrate (ES010, R&D Biosystems) by venom in the presence or absence of inhibitors.
(§2) Briefly, 10 µl of the substrate (supplied as a 6.2 mM stock) was used per 5 ml reaction buffer (150 mM NaCl, 50 mM Tris-Cl pH 7.5). Reactions consisted of 10 µl of venom ± inhibitors in PBS and 90 µl of substrate. Venoms were used at 1 µg/reaction and final inhibitor concentrations ranged from 150 µM to 150 nM. Samples were preincubated for 30 min at 37 °C and pipetted in triplicate into 384-well plates (Greiner). Thereafter, data was collected on an Omega FLUOstar (BMG Labtech) instrument at an excitation wavelength of 320 nm and emission wavelength of 405 nm at 25 °C for 1 h. The areas under the curve (AUCs) in the 0–40 min interval were calculated for each sample using MARS data analysis software v3.31 (BMG Labtech); this time point was chosen as the time where all fluorescence curves had reached a plateau (maximum fluorescence). For comparing venom-only samples, the means of at least three independent experimental runs for each condition, expressed as AUCs (n ≥ 3), were plotted at each inhibitor concentration with standard error of the mean (SEM). To determine inhibitor efficacy, the AUCs for each of the samples that consisted of venom + inhibitors were transformed and expressed as percentages of the venom-only sample (where the venom was 100%). The negative control (PBS-only) was also expressed relative to the venom, and the variation in background was presented as an interval delineated by the lowest and highest values in the PBS-only samples across concentrations and inhibitors for a specific venom.

In data set [2] the test system is Bitis arietans venom SVMP activity. As to the kind of experiment: fluorogenic SVMP assay. The following applies: independent repeats. It is filed as biochemical. As to the method: as §1, §2
In data set [3] the test system is Bothrops asper venom SVMP activity. The experiment in a line: fluorogenic SVMP assay. The conditions noted are these: independent repeats. It is filed as biochemical. On the procedure:
as §1, §2

For data set [4], the system named is Echis carinatus venom SVMP activity. As to the kind of experiment: fluorogenic SVMP assay. Format: biochemical. The following applies: independent repeats. On the procedure: as §1, §2
Data set [5] relates to Echis ocellatus venom SVMP activity. The experiment in a line: fluorogenic SVMP assay. The conditions noted are these: independent repeats. It is filed as biochemical. On the procedure: as §1, §2
Data set [6] has as its system procoagulant activity of viper venoms (citrated bovine plasma). The experiment in a line: plasma clotting assay, viper venoms overall. Format: biochemical. On the procedure:
(§3) We used a previously developed plasma clotting assay[35] to measure venom-induced coagulation. Briefly, 100 ng of each venom was incubated at 37 °C for 30 min in the presence or absence of inhibitors (150 µM to 150 nM final concentrations). The final reaction consisted of 10 µl venom ± inhibitors in PBS, 20 µl 20 mM CaCl2, and 20 µl citrated bovine plasma (VWR). The samples were pipetted in triplicate into 384-well plates, and absorbance monitored at 595 nm for 2 h at 25 °C on an Omega FLUOstar instrument. We calculated the maximum clotting velocity of each of the curves as per clot waveform analysis, by calculating the maximum of the first derivative. The means of at least three independent experimental runs for each condition were plotted at each inhibitor concentration with SEMs.

The subject of data set [7] is procoagulant activity of Bothrops asper venom (citrated bovine plasma). As to the kind of experiment: plasma clotting assay. The conditions noted are these: Bothrops asper venom 100 ng, independent repeats. Format: biochemical. As to the method:
as §3

The test system of data set [8] is procoagulant activity of Echis ocellatus venom (citrated bovine plasma). As to the kind of experiment: plasma clotting assay. The conditions noted are these: Echis ocellatus venom 100 ng, independent repeats. It is filed as biochemical. On the procedure:
as §3

For data set [9], the system named is procoagulant activity of Echis carinatus venom (citrated bovine plasma). As to the kind of experiment: plasma clotting assay. Format: biochemical. The arrangement: key: max of first derivative of A595 clot curve (max clotting velocity). The conditions noted are these: Echis carinatus venom 100 ng, independent repeats. As to the method: as §3
In data set [10] the test system is coagulopathic activity of Daboia russelii venom (citrated bovine plasma). As to the kind of experiment: plasma clotting assay. Format: biochemical. The arrangement: key to maximum clotting velocity: max of first derivative of A595 clot curve (max clotting velocity). The conditions noted are these: for maximum clotting velocity: Daboia russelii venom 100 ng, independent repeats. As to the method:
as §3

For data set [11], the system named is E. ocellatus venom. The conditions noted are these: cited from earlier work.
Data set [12] relates to SVSP activity of viper venoms. As to the kind of experiment: chromogenic SVSP assay, viper venoms overall. Format: biochemical. As to the method: (§4) SVSP activity was measured using a chromogenic substrate (S-2288, Cambridge Bioscience). Reactions consisted of 15 µl of venom ± inhibitors in PBS, 15 µl of assay buffer (100 mM Tris-Cl pH 8.5, 100 mM NaCl) and 15 µl of 6 mM substrate. A positive venom-only control, a negative control containing 15 µl of PBS and a drug-only control (where applicable) were also included. The final substrate concentration was 2 mM and venoms were used at 1 µg/reaction. When testing inhibitors, these were preincubated with the venoms for 30 min at 37 °C with concentrations ranging from 150 µM to 150 nM (tenfold dilutions). The samples were pipetted in triplicate into 384-well plates (Greiner) and absorbance at 405 nm was monitored kinetically for ~30 min on an Omega FLUOstar instrument (BMG Labtech). Given the linearity of the resulting slopes, negative control readings (PBS) were subtracted from each reading and the rate of substrate consumption calculated by measuring the slope between 0 and 5 min. The mean rates (expressed as ΔAbs/time/µg venom) of at least three independent experimental runs for each condition (n ≥ 3) were plotted at each inhibitor concentration with SEMs using Prism v8 software (GraphPad).

Data set [13] has as its system Bitis arietans venom SVSP activity. As to the kind of experiment: chromogenic SVSP assay. The following applies: independent repeats. Format: biochemical. On the procedure: as §4
The subject of data set [14] is Bothrops asper venom SVSP activity. As to the kind of experiment: chromogenic SVSP assay. It is filed as biochemical. The following applies: independent repeats. On the procedure: as §4
Data set [15] has as its system Echis carinatus venom SVSP activity. The experiment in a line: chromogenic SVSP assay. It is filed as biochemical. The following applies: independent repeats. As to the method: as §4
The test system of data set [16] is Echis ocellatus venom SVSP activity. As to the kind of experiment: chromogenic SVSP assay. It is filed as biochemical. The following applies: nafamostat 150 nM, independent repeats. On the procedure: as §4
The subject of data set [17] is plasma coagulation. Format: biochemical, bovine. The conditions noted are these: no venom; high doses (150 µM). As to the method: as §3
Data set [18] relates to E. ocellatus venom. The experiment in a line: in vivo preincubation model of envenoming (i.v.). The arrangement: species or system CD-1 mice. On the procedure:
All animal experiments were conducted using protocols approved by the Animal Welfare and Ethical Review Boards of the Liverpool School of Tropical Medicine and the University of Liverpool, and performed in specific pathogen-free conditions under licensed approval (PPL #4003718 and #P5846F90) of the UK Home Office and in accordance with the Animal [Scientific Procedures] Act 1986 and institutional guidance on animal care. All experimental animals (18–20 g [4–5 weeks old], male, CD-1 mice, Charles River, UK) were housed in groups of five with environmental enrichment, water and food ad libitum and their health monitored daily during acclimatization. The experimental design was based upon 3R-refined WHO-recommended protocols[28],[41], with animals randomized and observers being blinded to the experimental condition. The median lethal doses (venom LD50) used for E. ocellatus (Nigeria), E. carinatus (India), B. asper (Costa Rica), D. russelii (Sri Lanka) and B. arietans (Nigeria) venoms were previously determined[25],[41],[44],[45].
All experimental doses were prepared to a volume of 200 µl in PBS and incubated at 37 °C for 30 min prior to their intravenous injection via the tail vein. Animals were monitored for 6 h, and euthanized via rising concentrations of CO2 upon observation of previously defined humane end points that are predicators of lethality (e.g., seizure, pulmonary distress, paralysis, hemorrhage)[28]. Deaths, time of death, and survivors were recorded; where death/time of death actually represents the implementation of euthanasia based on defined humane end points.
For all experimental animals described above, blood samples were collected via cardiac puncture immediately post-euthanasia. Plasma was separated by centrifugation at 400 × g for 10 min and stored at −80 °C. We assessed the levels of thrombin-antithrombin complexes (TAT) and soluble thrombomodulin using mouse ELISA Kits (ab137994 and ab209880, Abcam), following the manufacturer’s protocol. All available plasma samples (some were unobtainable via cardiac puncture due to extensive internal hemorrhage) were assessed if the time of death within the group varied, whereas three samples were randomly chosen if the time of death was the same (e.g., either very rapid death within 2 min, or survival until the end of the experiment [360 min or 24 h]). The resulting data was plotted as the median of duplicate measurements for each animal and is presented with standard deviations (SDs).

The conditions of data set [19]: cited from earlier work.

Each structure is given as a SMILES string. Several values for one entry are separate records, joined by “and”; a condition that tells them apart may be missing. Equal values may be shown once.

Turning to `O=S(=O)(O)CC(S)CS` (stereo not drawn) [DMPS, 2,3-dimercapto-1-propanesulfonic acid], the “lowest concentration generally effective / required to fully inhibit SVMP activities” value in [1] (across the active venoms) is 15 µM. Besides, the IC50 lay within 290 to 4190 nM in data set [1] (range across the active venoms, read-out: IC50s, inhibition of venom SVMP activity); 800 to 25900 nM in [6] (range across all venoms, lower end of dimercaprol and marimastat ranges given as < 0.15, read-out: IC50, inhibition of procoagulant venom activity). In addition, the “SVMP activity, percentage of the venom-only sample” value in [2] (inhibitor 15 µM) was 22.3961% and 20.1207% and 18.6801%; in data set [2] (inhibitor 150 µM), 20.1452% and 19.0476% and 17.6656%; in data set [3] (inhibitor 15 µM), 34.6541% and 41.4523% and 39.2938%; in data set [3] (inhibitor 150 µM), 33.142% and 30.6392% and 28.5849%; in [4] (inhibitor 15 µM), 24.5956% and 26.5777% and 20.6819%; in [4] (inhibitor 150 µM), 13.0224% and 14.752% and 12.5581%. Besides, the “SVMP activity, percentage of the venom-only sample” value in [5] (inhibitor 15 µM) is 18.6328% and 21.5132% and 17.5016%; in data set [5] (inhibitor 150 µM) it was 15.3569% and 14.8369% and 16.006%. Also, the “neutralizing the procoagulant activities” value in data set [6] (E. ocellatus, E. carinatus and B. asper venoms, highest dose 150 µM) is “effective”. Besides, the maximum clotting velocity in data set [7] (inhibitor 15 µM) was 0.04261 and 0.04406 and 0.05475; in data set [7] (inhibitor 150 µM), 0.03159 and 0.02725 and 0.0282; in data set [8] (inhibitor 15 µM), 0.09233 and 0.098 and 0.085; in [8] (inhibitor 150 µM), 0.03733 and 0.04867 and 0.039; in data set [9] (inhibitor 15 µM) it was 0.04133 and 0.038 and 0.05133; in [9] (inhibitor 150 µM) it was 0.033 and 0.04 and 0.03533. Moreover, the maximum clotting velocity in [10] (inhibitor 15 µM) was 0.1186 and 0.1081 and 0.1102; in [10] (inhibitor 150 µM), 0.07853 and 0.08841 and 0.07869. For the same molecule, in [10] (D. russelii venom), the “neutralizing the procoagulant activity” value is reported as “ineffective”. The “survival time of individual animals (Kaplan-Meier source data)” value in data set [11] (90 µg E. ocellatus venom i.p., 120 µg DMPS i.p. 15 mins later, D + AV also 168 µl EchiTAbG i.v. 1 hr after venom, 1 = death (=), 0 = survived (>=), ref Albulescu et al.1) is 12.6 h and 21.51 h and 15.51 h and ≥ 24 h. In [11] (same preclinical model, E. ocellatus), the “duration for which lethality was prevented” value is recorded as ~ 8 h.
For `N=C(N)c1ccc2cc(OC(=O)c3ccc(N=C(N)N)cc3)ccc2c1` [nafamostat], the “inhibition of SVSP activity” value in data set [12] (highest doses 150 and 15 µM, irrespective of venom) is given as “completely inhibiting SVSP activity”. For the same molecule, the IC50 in data set [12] (range across venoms, read-out: IC50s, inhibition of venom SVSP activity) lay in the range of 120 to 1070 nM. Further, the “SVSP activity, rate of substrate consumption” value in data set [13] (nafamostat 150 nM) was 0.0636 ΔAbs/time/µg venom and 0.06929 ΔAbs/time/µg venom and 0.08741 ΔAbs/time/µg venom; in [13] (nafamostat 15 uM), 0.0014 ΔAbs/time/µg venom and 0.001071 ΔAbs/time/µg venom and 0.001786 ΔAbs/time/µg venom; in [14] (nafamostat 150 nM) it was 0.03413 ΔAbs/time/µg venom and 0.03851 ΔAbs/time/µg venom and 0.04036 ΔAbs/time/µg venom; in data set [14] (nafamostat 15 uM) it was 0.003733 ΔAbs/time/µg venom and 0.002738 ΔAbs/time/µg venom and 0.004018 ΔAbs/time/µg venom; in data set [15] (nafamostat 150 nM), 0.08494 ΔAbs/time/µg venom and 0.09756 ΔAbs/time/µg venom and 0.1079 ΔAbs/time/µg venom; in data set [15] (nafamostat 15 uM), 0.001726 ΔAbs/time/µg venom and 0.002857 ΔAbs/time/µg venom and 0.003095 ΔAbs/time/µg venom. Further, the “SVSP activity, rate of substrate consumption” value in data set [16] is 0.01667 ΔAbs/time/µg venom and 0.02387 ΔAbs/time/µg venom and 0.02696 ΔAbs/time/µg venom. In addition, in data set [17], the “effect on normal plasma clotting” value is listed as “dramatically inhibits plasma coagulation”. Besides, the “protection against venom-induced lethality” value in [18] (45 µg E. ocellatus venom preincubated with 60 µg of each drug, i.v., 6 h) was “no evident efficacy”. In addition, the “thrombin-antithrombin (TAT) levels, range in group” value in data set [18] (plasma after euthanasia, E. ocellatus venom + 60 µg of each drug, venom-only mean 1127.3, normal mice 10.2–15.9) is 543.9 to 859.1 ng/mL. For the same molecule, in data set [19], the half-life is on record as ~ 8 min.
